A word on the Ki: it is the equilibrium dissociation constant of an inhibitor or competing ligand from its target. The IC50 is the concentration at which inhibition is half-maximal.

The target of one test is PI3Kα (Homo sapiens (Human), UniProt P42336). The settings on record: read-out: PI3Kα AlphaScreen ® Ki. A general note: In Alpha technology, singlet oxygen from a donor bead excites a nearby acceptor bead.
Test [1] has as its system phosphorylation of Akt at Serine 473 in U87 MG cells. The experiment in a line: cells. As to conditions: Homo sapiens, U-87 MG, 2 h.
Protocol: pAkt Aplhascreen (U87 Cell)
This assay was performed using U87 MG cells. […] The cells were maintained weekly using 0.05% Trypsin (Gibco) and replated in 150 mm TC—Treated Culture Dishes (Corning, Corning, N.Y.).
The first day of the assay, the adherent cells were trypsinized, media was added to the loose cells and cells were mixed to a homogenous mixture. 0.5 ml of the homogenous mixture was counted on the Beckman Coulter® Vi-CELL™ XR (Fullerton, Calif.). 50 frames of cells were counted and the number of viable cells was determined. The cells were then diluted to 0.25 million cells per ml, and centrifuged at 200 rcf for 5 minutes. The media was removed and the cells were reconstituted in fresh media for plating. The cells were plated at 20 μl per well on the PerkinElmer® FlexDrop PLUS in Low Volume 384 Well White Tissue Culture Plates (Corning) with a final cell density of 5K cells per well. The plates were incubated overnight at 37° Celsius, 5% CO2.
After two hours, the media in the cell plates was aspirated using the BioTek® ELx405HT plate washer (Winooski, Vt.) removing the majority of media and compound without disturbing the adherent U87 cells. […] The plates were then incubated at room temperature on a shaker for ten minutes. […] The AlphaScreen® reaction was added to the cell lysate at 6 μl per well using the PerkinElmer® FlexDrop PLUS. The plates were placed in a humid environment to reduce edge effects and incubated overnight at room temperature with restricted air flow in the dark.
Setting [2] is: read-out: U87Cell IC50, pAkt (Ser 473), U87 MG cells, two hours with compound.

Each structure is given as a SMILES string. Where two headings read alike, the source gives them in different places.

PI3Kα, sequence (P42336 whole entry): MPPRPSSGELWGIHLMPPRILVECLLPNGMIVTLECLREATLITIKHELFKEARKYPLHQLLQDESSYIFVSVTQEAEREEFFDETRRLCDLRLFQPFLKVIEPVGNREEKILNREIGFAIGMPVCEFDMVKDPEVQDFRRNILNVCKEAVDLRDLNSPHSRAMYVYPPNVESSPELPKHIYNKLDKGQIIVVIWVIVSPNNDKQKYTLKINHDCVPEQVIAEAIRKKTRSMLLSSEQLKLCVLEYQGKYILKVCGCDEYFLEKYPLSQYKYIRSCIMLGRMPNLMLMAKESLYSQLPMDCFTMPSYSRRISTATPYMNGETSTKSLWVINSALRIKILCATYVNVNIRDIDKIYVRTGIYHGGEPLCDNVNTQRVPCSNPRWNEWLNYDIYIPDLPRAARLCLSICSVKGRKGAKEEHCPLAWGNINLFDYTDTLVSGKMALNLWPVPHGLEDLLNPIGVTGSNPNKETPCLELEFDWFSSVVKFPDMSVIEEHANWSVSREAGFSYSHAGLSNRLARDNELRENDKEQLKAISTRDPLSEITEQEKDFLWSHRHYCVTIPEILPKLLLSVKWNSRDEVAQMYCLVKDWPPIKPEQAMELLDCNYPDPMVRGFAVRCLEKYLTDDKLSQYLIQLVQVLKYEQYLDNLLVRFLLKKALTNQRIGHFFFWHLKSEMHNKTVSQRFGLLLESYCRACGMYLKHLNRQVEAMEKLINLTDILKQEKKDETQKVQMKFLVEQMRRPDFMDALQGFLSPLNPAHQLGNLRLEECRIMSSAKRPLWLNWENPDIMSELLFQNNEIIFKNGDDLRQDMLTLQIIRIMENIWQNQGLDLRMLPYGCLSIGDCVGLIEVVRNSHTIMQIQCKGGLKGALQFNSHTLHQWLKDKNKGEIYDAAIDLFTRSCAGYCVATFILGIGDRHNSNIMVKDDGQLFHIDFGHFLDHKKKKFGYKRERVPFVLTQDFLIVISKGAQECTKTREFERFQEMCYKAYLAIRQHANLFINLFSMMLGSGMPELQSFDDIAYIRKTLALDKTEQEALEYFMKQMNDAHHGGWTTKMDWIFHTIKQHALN
PI3Kα, sequence (P27986 whole entry partner): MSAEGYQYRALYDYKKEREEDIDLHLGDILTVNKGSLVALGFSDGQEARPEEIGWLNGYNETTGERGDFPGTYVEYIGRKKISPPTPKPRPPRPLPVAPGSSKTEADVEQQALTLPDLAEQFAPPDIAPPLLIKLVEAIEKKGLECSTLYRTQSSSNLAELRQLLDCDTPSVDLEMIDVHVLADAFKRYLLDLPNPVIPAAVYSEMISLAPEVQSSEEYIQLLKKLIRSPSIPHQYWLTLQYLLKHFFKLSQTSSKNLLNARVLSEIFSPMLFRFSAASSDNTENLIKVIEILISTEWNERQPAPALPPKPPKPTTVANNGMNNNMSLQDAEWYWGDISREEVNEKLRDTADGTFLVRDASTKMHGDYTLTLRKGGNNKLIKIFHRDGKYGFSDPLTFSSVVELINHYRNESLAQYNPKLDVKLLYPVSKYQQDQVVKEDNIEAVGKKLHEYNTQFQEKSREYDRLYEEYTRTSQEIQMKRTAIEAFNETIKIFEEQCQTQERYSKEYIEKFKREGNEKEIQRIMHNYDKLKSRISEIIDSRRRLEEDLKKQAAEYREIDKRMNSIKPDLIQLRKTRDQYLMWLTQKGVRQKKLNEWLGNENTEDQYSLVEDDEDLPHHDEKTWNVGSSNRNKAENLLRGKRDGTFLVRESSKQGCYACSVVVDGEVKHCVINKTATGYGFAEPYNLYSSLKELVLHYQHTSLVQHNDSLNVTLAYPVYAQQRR

For `COc1ccc(Nc2nc3ccccc3cc2-c2nc(C)nc(N)n2)cn1` [Example 238, 3-(4-Amino-6-Methyl-1,3,5-Triazin-2-yl)-N-(6-Methoxypyridin-3-yl)Quinolin-2-Amine], the inhibitory constant (Ki) at PI3Kα was 0.045 µM. Moreover, in test [1] (setting [2]), the IC50 turned out to be 0.245 µM.

Turning to `Cc1nc(N)nc(-c2cc(CN3CCN(S(C)(=O)=O)CC3)cnc2Nc2ccc3scnc3c2)n1` [Example 240, N-(3-(4-Amino-6-Methyl-1,3,5-Triazin-2-yl)-5-((4-(Methylsulfonyl)Piperazin-1-yl)Methyl)Pyridin-2-yl)Benzo[D]Thiazol-5-Amine], the Ki on PI3Kα was determined as 0.008 µM. The IC50 in test [1] (setting [2]) is 0.043 µM.

In the case of `Cc1nc(N)nc(-c2cc(CN3CCN(S(C)(=O)=O)CC3)cnc2Nc2ccc3ncsc3c2)n1` [Example 241, N-(3-(4-Amino-6-Methyl-1,3,5-Triazin-2-yl)-5-((4-(Methylsulfonyl)Piperazin-1-yl)Methyl)Pyridin-2-yl)Benzo[D]Thiazol-6-Amine], the Ki on PI3Kα amounted to 0.043 µM. The 50% inhibitory concentration (IC50) in test [1] (setting [2]) is 0.087 µM.

Regarding `Cc1nc(N)nc(-c2cc(CN3CCN(S(C)(=O)=O)CC3)cnc2Nc2cn[nH]c2)n1` [Example 243, 4-(2-(1H-Pyrazol-4-Ylamino)-5-((4-(Methylsulfonyl)Piperazin-1-yl)Methyl)Pyridin-3-yl)-6-Methyl-1,3,5-Triazin-2-Amine], the Ki on PI3Kα amounted to 0.163 µM. Further, the concentration for half-maximal inhibition (IC50) in test [1] (setting [2]) came out at 1.52 µM.

For the compound `Cc1nc(N)nc(-c2cc(CN3CCN(S(C)(=O)=O)CC3)cnc2Nc2cc[nH]n2)n1` [Example 244, 4-(2-(1H-Pyrazol-3-Ylamino)-5-((4-(Methylsulfonyl)Piperazin-1-yl)Methyl)Pyridin-3-yl)-6-Methyl-1,3,5-Triazin-2-Amine], on PI3Kα, the Ki was found to be 1.46 µM. For the same compound, the IC50 in test [1] (setting [2]) worked out at 1.49 µM.

Take `Cc1nc(N)nc(-c2cccnc2Nc2ccc(F)c(F)c2)n1` [Example 248]: at PI3Kα, the Ki amounted to 0.442 µM. The IC50 in test [1] (setting [2]) came out at 2.29 µM.

Regarding `COc1ccc(Nc2ncc(C3=CCNCC3)cc2-c2nc(C)nc(N)n2)cn1` [Example 249, 4-(2-(6-Methoxypyridin-3-Ylamino)-5-(1,2,3,6-Tetrahydropyridin-4-yl)Pyridin-3-yl)-6-Methyl-1,3,5-Triazin-2-Amine], the Ki at PI3Kα came out at 0.021 µM. In addition, the IC50 in test [1] (read-out: U87Cell IC50) worked out at 0.088 µM.

In the case of `COc1ccc(Nc2ncc(-c3cn[nH]c3)cc2-c2nc(C)nc(N)n2)cn1` [Example 250, 4-(2-(6-Methoxypyridin-3-Ylamino)-5-(1H-Pyrazol-4-yl)Pyridin-3-yl)-6-Methyl-1,3,5-Triazin-2-Amine], on PI3Kα, the Ki is 0.011 µM. Moreover, in test [1] (setting [2]), the IC50 is 0.046 µM.

As for `COc1ccc(Nc2ncc(-c3ccnnc3)cc2-c2nc(C)nc(N)n2)cn1` [Example 252, 4-(2-(6-Methoxypyridin-3-Ylamino)-5-(Pyridazin-4-yl)Pyridin-3-yl)-6-Methyl-1,3,5-Triazin-2-Amine], at PI3Kα, the inhibitory constant (Ki) is 0.06 µM. Besides, the half-maximal inhibitory concentration (IC50) in test [1] (setting [2]) worked out at 0.151 µM.

As to `COc1ccc(Nc2ncc(-c3cncc(F)c3)cc2-c2nc(C)nc(N)n2)cn1` [Example 253, 5-(4-Amino-6-Methyl-1,3,5-Triazin-2-yl)-5′-Fluoro-N-(6-Methoxypyridin-3-yl)-3,3′-Bipyridin-6-Amine], the Ki on PI3Kα is 0.012 µM. In addition, the IC50 in test [1] (setting [2]) worked out at 0.28 µM.

With `COc1ccc(Nc2nc(-c3cccnc3)ccc2-c2nc(C)nc(N)n2)cn1` [Example 254, 5-(4-Amino-6-Methyl-1,3,5-Triazin-2-yl)-N-(6-Methoxypyridin-3-yl)-2,3′-Bipyridin-6-Amine], the Ki at PI3Kα stood at 0.067 µM. Besides, the IC50 in test [1] (setting [2]) was 0.583 µM.

Regarding `COc1ncc(Nc2nc(-c3cccnc3)ccc2-c2nc(C)nc(N)n2)cc1F` [Example 255, 5-(4-Amino-6-Methyl-1,3,5-Triazin-2-yl)-N-(5-Fluoro-6-Methoxypyridin-3-yl)-2,3′-Bipyridin-6-Amine], the Ki at PI3Kα was 0.004 µM. For the same compound, the half-inhibitory concentration (IC50) in test [1] (setting [2]) turned out to be 0.037 µM.

On to `Cc1nc(N)nc(-c2cc(Cl)cnc2Nc2cncc(F)c2)n1` [Example 257, 4-(5-Chloro-2-(5-Fluoropyridin-3-Ylamino)Pyridin-3-yl)-6-Methyl-1,3,5-Triazin-2-Amine], for which the Ki at PI3Kα was determined as 0.426 µM. For the same compound, the IC50 in test [1] (setting [2]) was greater than 10 µM.

With `Cc1nc(N)nc(-c2cc(-c3cnn(C)c3)cnc2Nc2cncc(F)c2)n1` [Example 258, 4-(2-(5-Fluoropyridin-3-Ylamino)-5-(1-Methyl-1H-Pyrazol-4-yl)Pyridin-3-yl)-6-Methyl-1,3,5-Triazin-2-Amine], the Ki on PI3Kα came out at 0.014 µM. Moreover, in test [1] (setting [2]), the IC50 came to 0.192 µM.

`COCCOc1ccc(-c2nc(C)nc(N)n2)c(Nc2cnc(OC)c(F)c2)n1` [Example 259, 4-(2-(5-Fluoro-6-Methoxypyridin-3-Ylamino)-6-(2-Methoxyethoxy)Pyridin-3-yl)-6-Methyl-1,3,5-Triazin-2-Amine]: the Ki at PI3Kα came out at 0.081 µM. In addition, in test [1] (setting [2]), the IC50 was determined as 0.19 µM.

For `Cc1nc(N)nc(-c2cc(CN3CCN(S(C)(=O)=O)CC3)cnc2Nc2ccc3[nH]cnc3c2)n1` [Example 260, N-(3-(4-Amino-6-Methyl-1,3,5-Triazin-2-yl)-5-((4-(Methylsulfonyl)Piperazin-1-yl)Methyl)Pyridin-2-yl)-1H-Benzo[D]Imidazol-5-Amine], the Ki on PI3Kα stood at 0.016 µM. For the same compound, the IC50 in test [1] (setting [2]) was 1.03 µM.

Consider `Cc1nc(N)nc(-c2cc(CN3CCNCC3)cnc2Nc2ccc3[nH]cnc3c2)n1` [Example 261, N-(3-(4-Amino-6-Methyl-1,3,5-Triazin-2-yl)-5-(Piperazin-1-Ylmethyl)Pyridin-2-yl)-1H-Benzo[D]Imidazol-5-Amine], for which the Ki on PI3Kα was 0.069 µM. The IC50 in test [1] (setting [2]) stood at 2.72 µM.

With `COc1ccc(Nc2ncc(OC(F)F)cc2-c2nc(C)nc(N)n2)cn1` [Example 262, 4-(5-(Difluoromethoxy)-2-(6-Methoxypyridin-3-Ylamino)Pyridin-3-yl)-6-Methyl-1,3,5-Triazin-2-Amine], at PI3Kα, the Ki was found to be 0.047 µM. Further, the IC50 in test [1] (setting [2]) came to 0.18 µM.

As to `Cc1nc(N)nc(-c2cccnc2Nc2cc[nH]c(=O)c2)n1` [Example 263, 4-(3-(4-Amino-6-Methyl-1,3,5-Triazin-2-yl)Pyridin-2-Ylamino)Pyridin-2(1H)-One], the inhibition constant Ki on PI3Kα is 0.643 µM. In addition, the IC50 in test [1] (setting [2]) was greater than 10 µM.

With `CC(=O)Nc1ccc(Nc2ncc(Cl)cc2-c2nc(C)nc(N)n2)cc1F` [Example 266, N-(4-(3-(4-Amino-6-Methyl-1,3,5-Triazin-2-yl)-5-Chloropyridin-2-Ylamino)-2-Fluorophenyl)Acetamide], the Ki at PI3Kα stood at 0.155 µM. Moreover, the IC50 in test [1] (setting [2]) was determined as 1.1 µM.

Take `CC(=O)Nc1ccc(Nc2ncc(CN3CCN(S(C)(=O)=O)CC3)cc2-c2nc(C)nc(N)n2)cc1F` [Example 267, N-(4-(3-(4-Amino-6-Methyl-1,3,5-Triazin-2-yl)-5-((4-(Methylsulfonyl)Piperazin-1-yl)Methyl)Pyridin-2-Ylamino)-2-Fluorophenyl)Acetamide]: the Ki at PI3Kα amounted to 0.369 µM. For the same compound, the IC50 in test [1] (setting [2]) came out at 0.486 µM.

Regarding `CC(=O)Nc1ccc(Nc2ncc(CN3CCN(S(C)(=O)=O)CC3)cc2-c2nc(C)nc(N)n2)cc1` [Example 268, N-(4-(3-(4-Amino-6-Methyl-1,3,5-Triazin-2-yl)-5-((4-(Methylsulfonyl)Piperazin-1-yl)Methyl)Pyridin-2-Ylamino)Phenyl)Acetamide], at PI3Kα, the Ki worked out at 0.103 µM. In addition, in test [1] (setting [2]), the IC50 worked out at 0.739 µM.

`COc1ncc(Nc2ncc([C@H](C)N3CCOCC3)cc2-c2cc(N)nc(C)n2)cc1F` [Example 275, 6-(2-((5-Fluoro-6-Methoxy-3-Pyridinyl)Amino)-5-((1S)-1-(4-Morpholinyl)Ethyl)-3-Pyridinyl)-2-Methyl-4-Pyrimidinamine]: the Ki on PI3Kα worked out at 0.032 µM. In test [1] (setting [2]), the IC50 came to 0.018 µM.

Regarding `COc1ncc(Nc2ncc([C@@H](C)N3CCOCC3)cc2-c2cc(N)nc(C)n2)cc1F` [Example 276, 6-(2-((5-Fluoro-6-Methoxy-3-Pyridinyl)Amino)-5-((1R)-1-(4-Morpholinyl)Ethyl)-3-Pyridinyl)-2-Methyl-4-Pyrimidinamine], the Ki on PI3Kα turned out to be 0.017 µM. The IC50 in test [1] (setting [2]) turned out to be 0.091 µM.

Consider `COc1ccc(Nc2ncc(C(C)(C)N)cc2-c2nc(C)nc(N)n2)cn1` [Example 277, 4-(5-(2-Aminopropan-2-yl)-2-(6-Methoxypyridin-3-Ylamino)Pyridin-3-yl)-6-Methyl-1,3,5-Triazin-2-Amine], for which, on PI3Kα, the Ki was 0.056 µM. Further, the IC50 in test [1] (setting [2]) stood at 0.17 µM.

On to `COc1ncc(Nc2ncc(C(C)(C)N)cc2-c2nc(C)nc(N)n2)cc1F` [Example 278, 4-(5-(2-Aminopropan-2-yl)-2-(5-Fluoro-6-Methoxypyridin-3-Ylamino)Pyridin-3-yl)-6-Methyl-1,3,5-Triazin-2-Amine], for which, at PI3Kα, the Ki turned out to be 0.045 µM. Further, the IC50 in test [1] (setting [2]) came out at 0.024 µM.

Consider `COc1ccc(Nc2ncc(C(C)(C)N3CCN(S(C)(=O)=O)CC3)cc2-c2nc(C)nc(N)n2)cn1` [Example 279, 4-(2-(6-Methoxypyridin-3-Ylamino)-5-(2-(4-(Methylsulfonyl)Piperazin-1-yl)Propan-2-yl)Pyridin-3-yl)-6-Methyl-1,3,5-Triazin-2-Amine], for which the Ki at PI3Kα was determined as 0.011 µM. Moreover, the IC50 in test [1] (setting [2]) came out at 0.034 µM.

Regarding `COc1ncc(Nc2ncc(C(C)(C)N3CCOCC3)cc2-c2nc(C)nc(N)n2)cc1F` [Example 281, 4-(2-(5-Fluoro-6-Methoxypyridin-3-Ylamino)-5-(2-Morpholinopropan-2-yl)Pyridin-3-yl)-6-Methyl-1,3,5-Triazin-2-Amine], the Ki at PI3Kα was 0.006 µM. The IC50 in test [1] (setting [2]) was determined as 0.016 µM.

Turning to `COc1ccc(Nc2ncc(C3(N4CCN(S(C)(=O)=O)CC4)CC3)cc2-c2nc(C)nc(N)n2)cn1` [Example 282, 4-(2-(6-Methoxypyridin-3-Ylamino)-5-(1-(4-(Methylsulfonyl)Piperazin-1-yl)Cyclopropyl)Pyridin-3-yl)-6-Methyl-1,3,5-Triazin-2-Amine], the Ki on PI3Kα is 0.007 µM. Besides, in test [1] (setting [2]), the 50% inhibitory concentration (IC50) amounted to 0.026 µM.

(Values after US8772480B2, “Inhibitors of PI3 kinase and/or mTOR” (priority 2009, dated 2014).)
